The numbers were not newly measured in US6942970B2, “Identifying subjects suitable for topoisomerase II inhibitor treatment” (Zymed Laboratories, Inc., priority 2000, dated 2005), which cites them from elsewhere.

The test system of the data set is advanced breast cancer. Particulars: first-line chemotherapy, advanced breast cancer patients.

As for `COc1cccc2c1C(=O)c1c(O)c3c(c(O)c1C2=O)C[C@@](O)(C(=O)CO)C[C@@H]3O[C@H]1C[C@H](N)[C@@H](O)[C@H](C)O1` [epirubicin], the “response rate (CR+PR)” value was 48%.
